Experimental findings from the supplement of paper PMC11061612 are described below.

Experiment [1] has as its system C3A (Hepatocellular Carcinoma). Kind of experiment: Bliss excess, mean over the matrix (fraction); higher = more synergy. The method, boiled down: (§1)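 Cell lines in DMEM/F12 or RPMI with 10% FBS were plated in 1536-well plates, held 24 hours at 37°C, 5% CO2, then given two-drug dose matrices for 72 hours (DMSO typically 0.2%). Viability was read by CellTiter-Glo 2.0 luminescence and scaled as inhibition from 0 (vehicle wells) to 1 (blank wells). Combination Emax is the second-highest inhibition in the matrix; Bliss excess is observed combination effect minus expected EA + EB − EA·EB, EA and EB being single-agent effects.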

Experiment [2] relates to COR-L23 (Non-Small Cell Lung Carcinoma). The experiment is described as above. In short, it runs like this:
as §1

In experiment [3] the test system is DMS-273 (Small Cell Lung Carcinoma). The description is as above. In short, it runs like this:
as §1

For experiment [4], the system named is HCC2157 (Breast Carcinoma). The description is as above. In short, it runs like this:
as §1

Experiment [5] concerns HT-29 (Colorectal Carcinoma). The description is as above. The method, boiled down:
as §1

The subject of a further experiment is NCI-H2595 (Mesothelioma). The description is as above. The method, boiled down:
as §1

The next experiment relates to RH-1 (Ewing's Sarcoma). Described as above. The method, boiled down: as §1
Experiment [6] concerns SW1783 (Low Grade Glioma). Described as above. In short, it runs like this: as §1
Experiment [7] relates to SW756 (Cervical Carcinoma). Described as above. The method, boiled down: as §1
The subject of experiment [8] is SW780 (Bladder Carcinoma). The description is as above. The method, boiled down: as §1
Experiment [9] has as its system U-266 (Plasma Cell Myeloma). The description is as above. In short, it runs like this: as §1
Experiment [10] deals with 697 (B-Lymphoblastic Leukemia). The experiment is described as follows: combination Emax (second highest fraction inhibited in the dose matrix, 72 h); higher = more inhibition; extreme values may be limits of the assay. In short, it runs like this: as §1
The test system of experiment [11] is DMS-273 (Small Cell Lung Carcinoma). The description is as above. The method, boiled down:
as §1

The next experiment concerns ES7 (Ewing's Sarcoma). The experiment is described as above. The method, boiled down: as §1
Experiment [12] has as its system HPAC (Pancreatic Carcinoma). Described as above. The method, boiled down:
as §1

Experiment [13] deals with JiyoyeP-2003 (Burkitt's Lymphoma). The description is as above. The method, boiled down:
as §1

The subject of experiment [14] is KM-H2 (Hodgkin's Lymphoma). Described as above. The method, boiled down:
as §1

Experiment [15] relates to LU-99A (Non-Small Cell Lung Carcinoma). The experiment is described as above. The method, boiled down: as §1
For experiment [16], the system named is SUIT-2 (Pancreatic Carcinoma). The description is as above. In short, it runs like this:
as §1

The subject of experiment [17] is U-266 (Plasma Cell Myeloma). Described as above. In short, it runs like this: as §1
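For Bliss excess, mean over the matrix in this document: after 72 h of two-drug dosing.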

For `CC1(C)CCC(CN2CCN(c3ccc(C(=O)NS(=O)(=O)c4ccc(NCC5CCOCC5)c([N+](=O)[O-])c4)c(Oc4cnc5[nH]ccc5c4)c3)CC2)=C(c2ccc(Cl)cc2)C1` [Venetoclax] + Cn1cnc2c(F)c(Nc3ccc(Br)cc3Cl)c(C(=O)NOCCO)cc21 [Selumetinib] (first compound max 1 µM, 7x7, partner max 3 µM), the Bliss excess in [1] is -0.017; in experiment [2] it was -0.0182; in [3] it was -0.0184; in experiment [4] it was -0.006; in experiment [5], -0.0261; in the experiment with NCI-H2595 (Mesothelioma), -0.047. The Bliss excess with RH-1 (Ewing's Sarcoma) is -0.0291; in experiment [6] it was -0.0595; in experiment [7] it was -0.0537; in experiment [8], -0.0367; in experiment [9], 0.0137. The “combination Emax” value was 1 in [10]; 0.214 in [11]; 0.7 in the experiment on ES7 (Ewing's Sarcoma); 0.559 in experiment [12]; 0.304 in [13]; 0.097 in experiment [14]. For the same compound, the results for the “combination Emax” value in [15], in [16] and in experiment [17] were 0.324, 0.26 and 0.722, respectively.
Take `Cc1c2c(nn1C)CSCc1cc(n(C)n1)CSc1cc(c3ccccc3c1)OCCCc1c(C(=O)O)n(C)c3c-2c(Cl)ccc13` [AZD5991] + C[C@@H]1COCCN1C2=NC(=NC(=C2)C3(CC3)[S@](=N)(=O)C)C4=C5C=CNC5=NC=C4 [AZD6738] (first compound max 1 µM, 7x7, partner max 10 µM): the Bliss excess in [1] was 0.0412; in experiment [2] it was -0.0121; in [3], 0.0196; in experiment [4], 0.0155; in experiment [5], 0.0165; in the experiment on NCI-H2595 (Mesothelioma), -0.0124. For the same compound, the Bliss excess in the experiment with RH-1 (Ewing's Sarcoma) is -0.0221; in experiment [6], 0.0272; in experiment [7] it was 0.02; in experiment [8] it was 0.0324; in [9] it was 0.0624. The “combination Emax” value was 1 in experiment [10]; 0.98 in experiment [11]; 0.852 in the experiment with ES7 (Ewing's Sarcoma); 0.683 in experiment [12]; 0.965 in [13]; 0.814 in [14]. The “combination Emax” value was found to be 0.572 in experiment [15], 0.424 in [16] and 0.95 in experiment [17].
Regarding `CC1(C)CCC(CN2CCN(c3ccc(C(=O)NS(=O)(=O)c4ccc(NCC5CCOCC5)c([N+](=O)[O-])c4)c(Oc4cnc5[nH]ccc5c4)c3)CC2)=C(c2ccc(Cl)cc2)C1` [Venetoclax] + C=CCn1c(=O)c2cnc(Nc3ccc(N4CCN(C)CC4)cc3)nc2n1-c1cccc(C(C)(C)O)n1 [AZD1775] (first compound max 1 µM, partner max 1 µM), the Bliss excess in experiment [1] is -0.0511; in experiment [2] it was -0.0609; in experiment [3], -0.0711; in [4], -0.0554; in [5], 0.008; in the experiment with NCI-H2595 (Mesothelioma), -0.0316. In addition, the Bliss excess with RH-1 (Ewing's Sarcoma) is -0.0123; in experiment [6] it was -0.0007; in experiment [7], -0.0401; in [8], -0.0244; in experiment [9], 0.104. Also, the “combination Emax” value in experiment [10] stood at 1; in experiment [11], 0.749; in the experiment with ES7 (Ewing's Sarcoma), 0.888; in experiment [12], 0.757; in [13], 0.954; in [14], 0.974. Also, the “combination Emax” value turned out to be 0.463 in experiment [15], 0.596 in [16] and 0.85 in experiment [17].
